Laboratory results reported in the supplement of paper PMC10307832.

What was measured:
Assay in all cases: relative viability (nuclei count vs DMSO), 5 days (fraction); higher = more cells survive
Pazopanib + Palbociclib = compound: Cc1ccc(Nc2nccc(N(C)c3ccc4c(C)n(C)nc4c3)n2)cc1S(N)(=O)=O [Pazopanib] + CC(=O)c1c(C)c2cnc(Nc3ccc(N4CCNCC4)cn3)nc2n(C2CCCC2)c1=O [Palbociclib] (partner 0.5 µM)
How it was run: (§1)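 Values are medians from duplicate plates. Each reflects relative viability, defined as the nuclei count of treated wells over that of vehicle wells. Lung cancer cell lines in 1536-well plates were pin-tool dosed one day after seeding with one drug alone or with a fixed anchor-drug dose plus five library-drug doses (not always all listed) in √10 steps, then fixed, stained and imaged at 4× after 5 days.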

Pazopanib + Tozasertib = compound: Cc1ccc(Nc2nccc(N(C)c3ccc4c(C)n(C)nc4c3)n2)cc1S(N)(=O)=O [Pazopanib] + Cc1cc(Nc2cc(N3CCN(C)CC3)nc(Sc3ccc(NC(=O)C4CC4)cc3)n2)n[nH]1 [Tozasertib] (partner 0.1 µM)
How it was run: as §1

Pazopanib + Alpelisib = compound: Cc1ccc(Nc2nccc(N(C)c3ccc4c(C)n(C)nc4c3)n2)cc1S(N)(=O)=O [Pazopanib] + Cc1nc(NC(=O)N2CCC[C@H]2C(N)=O)sc1-c1ccnc(C(C)(C)C(F)(F)F)c1 [Alpelisib] (partner 2 µM)
How it was run: as §1

Pazopanib + Phenformin = compound: Cc1ccc(Nc2nccc(N(C)c3ccc4c(C)n(C)nc4c3)n2)cc1S(N)(=O)=O [Pazopanib] + N=C(N)NC(=N)NCCc1ccccc1 [Phenformin] (partner 250 µM)
How it was run: as §1

Cell Line	relative viability (Pazopanib + Palbociclib; first compound 0.01 µM)	relative viability (Pazopanib + Palbociclib; first compound 0.03162 µM)	relative viability (Pazopanib + Palbociclib; first compound 0.1 µM)	relative viability (Pazopanib + Palbociclib; first compound 0.3162 µM)	relative viability (Pazopanib + Palbociclib; first compound 1 µM)	relative viability (Pazopanib + Tozasertib; first compound 0.01 µM)	relative viability (Pazopanib + Tozasertib; first compound 0.03162 µM)	relative viability (Pazopanib + Tozasertib; first compound 0.1 µM)	relative viability (Pazopanib + Tozasertib; first compound 0.3162 µM)	relative viability (Pazopanib + Tozasertib; first compound 1 µM)	relative viability (Pazopanib + Alpelisib; first compound 0.01 µM)	relative viability (Pazopanib + Alpelisib; first compound 0.03162 µM)	relative viability (Pazopanib + Alpelisib; first compound 0.1 µM)	relative viability (Pazopanib + Alpelisib; first compound 0.3162 µM)	relative viability (Pazopanib + Alpelisib; first compound 1 µM)	relative viability (Pazopanib + Phenformin; first compound 0.01 µM)	relative viability (Pazopanib + Phenformin; first compound 0.03162 µM)	relative viability (Pazopanib + Phenformin; first compound 0.1 µM)	relative viability (Pazopanib + Phenformin; first compound 0.3162 µM)	relative viability (Pazopanib + Phenformin; first compound 1 µM)
NCI-H2126	0.337	0.322	0.354	0.361	0.361	0.805	0.828	0.877	0.86	0.842	0.65	0.751	0.821	0.811	0.806	0.489	0.521	0.537	0.53	0.587
NCI-H2170	0.353	0.387	0.445	0.399	0.393	0.772	0.724	0.73	0.67	0.674	0.73	0.794	0.877	0.646	0.787	0.507	0.406	0.393	0.423	0.388
NCI-H2228	0.892	0.75	0.848	0.756	0.779	0.265	0.271	0.265	0.26	0.302	0.783	0.89	1.02	0.769	0.643	0.366	0.366	0.324	0.443	0.313
NCI-H2347	0.422	0.452	0.406	0.449	0.498	0.45	0.586	0.607	0.593	0.588	1.06	1.04	1.08	1.06	1.16	0.218	0.385	0.38	0.468	0.377
NCI-H2405	0.467	0.531	0.535	0.519	0.583	0.77	0.777	0.79	0.75	0.76	0.743	0.787	0.861	1.09	0.838	0.368	0.399	0.426	0.419	0.448
NCI-H3122	0.194	0.175	0.217	0.189	0.241	0.408	0.382	0.435	0.394	0.426	0.733	0.734	0.783	0.884	0.736	0.417	0.388	0.345	0.36	0.376
PC-3 [JPC-3]		0.556	0.341	0.522	0.519	0.947	0.918	0.916	0.915	0.756	0.965	1.04	1.19	0.991	0.956	0.52	0.465	0.513	0.472	0.478
PC-14	0.561	0.585	0.568	0.719	0.6	0.69	0.636	0.725	0.586	0.603	0.883	0.996	0.959	0.934	0.935	0.747	0.692	0.607	0.823	0.677
RERF-LC-KJ	1.11	1.03	1.07	1.09	1.04	0.557	0.522	0.507	0.432	0.331	0.808	0.928	0.906	0.806	0.935	0.445	0.419	0.43	0.417	0.417
SK-LU-1	0.393	0.389	0.411	0.425	0.455	0.332	0.361	0.334	0.28	0.318	0.977	1.24	1.1	1.05	1.04	0.505	0.627	0.537	0.571	0.575
SK-MES-1	0.334	0.352	0.322	0.36	0.304	0.934	0.891	0.916	0.905	0.786	0.816	0.872	1.02	0.977	0.836	0.734	0.661	0.668	0.669	0.688
SW 1573	0.468	0.349	0.454	0.367	0.365	0.193	0.216	0.218	0.153	0.176	0.69	0.707	0.683	0.808	0.81	0.406	0.36	0.471	0.437	0.509
UMC-11	0.305	0.347	0.31	0.358	0.32	0.196	0.19	0.208	0.206	0.211	1.02	1.05	0.804	0.948	1.12	0.347	0.339	0.361	0.32	0.341
